{
  "source": "patent US20230272012A1",
  "about": "“PEPTIDES AND METHODS OF USE” (REALTA LIFE SCIENCES, INC., priority 2020, published 2023)",
  "molecular_target": "PD-L1 (Homo sapiens, UniProt Q9NZQ7)",
  "sequence (Q9NZQ7 19-290)": "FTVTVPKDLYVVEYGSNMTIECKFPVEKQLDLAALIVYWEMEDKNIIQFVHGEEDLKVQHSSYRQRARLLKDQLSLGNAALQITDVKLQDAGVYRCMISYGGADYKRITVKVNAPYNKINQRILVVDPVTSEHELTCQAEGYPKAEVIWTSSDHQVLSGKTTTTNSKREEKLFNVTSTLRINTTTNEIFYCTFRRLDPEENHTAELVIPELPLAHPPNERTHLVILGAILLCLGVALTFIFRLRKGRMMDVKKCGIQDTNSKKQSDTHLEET",
  "experiment": "Peptide binding to immobilized PD-L1, ELISA plate-based assay",
  "settings": "increasing amounts of peptide",
  "experimental": "RLS-0117 was allowed to bind to immobilized CTLA-4, PD-1, PD-L1 on the surface of the plate. Bound C1q served as a positive and control for peptide binding. Increasing amounts of peptides were added to the plates followed by a rabbit polyclonal antibody that recognizes the peptides and then a secondary anti-rabbit antibody conjugated with HRP. The plate was then developed by addition of TMB as the substrate for the colorimetric assay.\nThe inventors further evaluated if RLS-0117 could bind to the well characterized checkpoint inhibitor, cytotoxic T-lymphocyte associated protein 4 (CTLA-4 aka CD152). […] Therefore, the pharmaceutical inhibition of CTLA-4 or its ligand has been considered a promising strategy by many cancer researchers and is a therapeutic target in cancer immunotherapy. To ascertain the ability of RLS-0117 to bind CTLA-4, a binding assay was performed in which these proteins were coated on a microtiter plate followed by incubation with increasing amounts of either […]. Plates coated with PD-1, PD-L1 and C1q served as a positive control […].",
  "note": "Bridge positions count the residues as written; N and C are the ends. Square brackets hold non-standard residues; d marks the D form. Peptide text beside a SMILES is read from it. S5 = C=CCCC[C@](C)(N)C(=O)O; Sar = CNCC(=O)O",
  "data": [
    {"smiles": "CC[C@H](C)[C@H](N)C(=O)N[C@@H](C)C(=O)N[C@@H](CC(C)C)C(=O)N[C@H](C(=O)N[C@@H](CC(C)C)C(=O)N[C@@H](CCC(=O)O)C(=O)N1CCC[C@H]1C(=O)N(C)CC(=O)N[C@@H](CS)C(=O)N[C@@]1(C)CCCC=CCCC[C@@](C)(C(=O)N[C@@H](C)C(=O)O)NC(=O)[C@H](CCCNC(=N)N)NC(=O)[C@H](CCC(=O)O)NC(=O)[C@H](CCC(N)=O)NC1=O)[C@@H](C)CC", "note": "[PA-0117, IALILEP(Sar)CS5QERS5A] (H-IALILEP[Sar]C[S5]QER[S5]A-OH; staple 10-14)", "values": [
      {"measurement": "binding to PD-L1", "value": "dose-dependent binding"}
    ]}
  ]
}
